Experimental data as given in the kinase profiling compilation of Christmann-Franck et al. (2016).

Experiments:
Experiment in all cases: KINOMEscan competition binding
Conditions in all cases: compound 10.0 µM
STK24 (human) = STK24 (human) (UniProt Q9Y6E0)
CAMK4 (human) = CAMK4 (human) (UniProt Q16566)
NEK3 (human) = NEK3 (human) (UniProt P51956)
MST4 (human) = MST4 (human) (UniProt Q9P289)
AURKC (human) = AURKC (human) (UniProt Q9UQB9)
CAMK2B (human) = CAMK2B (human) (UniProt Q13554)
PHKG1 (human) = PHKG1 (human) (UniProt Q16816)
Chain of PHKG1 (human) (Q16816 whole entry, looked up): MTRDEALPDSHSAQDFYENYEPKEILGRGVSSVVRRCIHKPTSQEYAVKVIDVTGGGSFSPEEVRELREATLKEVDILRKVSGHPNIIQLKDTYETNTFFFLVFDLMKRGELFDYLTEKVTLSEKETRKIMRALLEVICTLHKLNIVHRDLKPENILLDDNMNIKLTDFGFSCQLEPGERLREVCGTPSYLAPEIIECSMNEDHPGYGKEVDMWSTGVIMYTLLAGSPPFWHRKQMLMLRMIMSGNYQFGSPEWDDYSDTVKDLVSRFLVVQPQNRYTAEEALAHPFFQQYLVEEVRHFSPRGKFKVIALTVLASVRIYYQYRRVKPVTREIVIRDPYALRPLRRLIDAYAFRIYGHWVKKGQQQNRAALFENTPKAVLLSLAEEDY

MAP2K1 (human) = MAP2K1 (human) (UniProt Q02750)
MAP2K4 (human) = MAP2K4 (human) (UniProt P45985)
TGFBR1 (human) = TGFBR1 (human) (UniProt P36897)
Chain of TGFBR1 (human) (P36897 whole entry, looked up): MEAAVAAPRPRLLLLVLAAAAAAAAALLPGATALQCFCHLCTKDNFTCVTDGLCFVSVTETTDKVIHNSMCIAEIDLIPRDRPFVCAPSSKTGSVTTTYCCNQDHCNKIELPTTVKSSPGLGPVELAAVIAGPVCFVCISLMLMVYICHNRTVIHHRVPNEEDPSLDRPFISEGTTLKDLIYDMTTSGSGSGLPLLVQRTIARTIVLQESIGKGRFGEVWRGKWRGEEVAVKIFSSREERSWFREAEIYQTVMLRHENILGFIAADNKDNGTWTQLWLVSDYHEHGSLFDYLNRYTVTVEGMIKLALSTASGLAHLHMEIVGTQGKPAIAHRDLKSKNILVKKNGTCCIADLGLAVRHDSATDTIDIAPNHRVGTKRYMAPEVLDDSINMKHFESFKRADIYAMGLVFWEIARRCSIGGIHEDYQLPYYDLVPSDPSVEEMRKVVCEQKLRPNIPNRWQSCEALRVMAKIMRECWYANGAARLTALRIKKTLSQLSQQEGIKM

AURKA (human) = AURKA (human) (UniProt O14965)
CDK14 (human) = CDK14 (human) (UniProt O94921)
HIPK4 (human) = HIPK4 (human) (UniProt Q8NE63)
DYRK1A (human) = DYRK1A (human) (UniProt Q13627)
STK16 (human) = STK16 (human) (UniProt O75716)
OXSR1 (human) = OXSR1 (human) (UniProt O95747)
STK38L (human) = STK38L (human) (UniProt Q9Y2H1)
Chain of STK38L (human) (Q9Y2H1 whole entry, looked up): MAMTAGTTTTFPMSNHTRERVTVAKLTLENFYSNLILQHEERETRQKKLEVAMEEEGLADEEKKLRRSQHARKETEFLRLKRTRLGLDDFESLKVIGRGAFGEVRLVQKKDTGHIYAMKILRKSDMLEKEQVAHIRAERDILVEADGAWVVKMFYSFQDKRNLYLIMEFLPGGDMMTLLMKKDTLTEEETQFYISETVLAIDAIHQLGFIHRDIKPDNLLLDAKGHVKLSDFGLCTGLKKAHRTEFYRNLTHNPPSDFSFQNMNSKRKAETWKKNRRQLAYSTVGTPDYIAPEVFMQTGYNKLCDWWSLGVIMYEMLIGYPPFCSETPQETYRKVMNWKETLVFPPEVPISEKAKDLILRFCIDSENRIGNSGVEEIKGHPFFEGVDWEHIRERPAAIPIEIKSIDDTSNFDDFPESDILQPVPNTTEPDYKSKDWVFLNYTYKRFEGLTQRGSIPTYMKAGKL

PKMYT1 (human) = PKMYT1 (human) (UniProt Q99640)
[1] = target: JAK2 JH1 catalytic (human) (UniProt O60674)
DAPK1 (human) = DAPK1 (human) (UniProt P53355)
GAK (human) = GAK (human) (UniProt O14976)
CDK5 (human) = CDK5 (human) (UniProt Q00535)
[2] = test system: RET (human), P07949 [M918T]
MAP2K3 (human) = MAP2K3 (human) (UniProt P46734)
MAP3K6 (human) = MAP3K6 (human) (UniProt O95382)
TTK (human) = TTK (human) (UniProt P33981)
NEK9 (human) = NEK9 (human) (UniProt Q8TD19)
MAP3K11 (human) = MAP3K11 (human) (UniProt Q16584)
STK36 (human) = STK36 (human) (UniProt Q9NRP7)
Chain of STK36 (human) (Q9NRP7 whole entry, looked up): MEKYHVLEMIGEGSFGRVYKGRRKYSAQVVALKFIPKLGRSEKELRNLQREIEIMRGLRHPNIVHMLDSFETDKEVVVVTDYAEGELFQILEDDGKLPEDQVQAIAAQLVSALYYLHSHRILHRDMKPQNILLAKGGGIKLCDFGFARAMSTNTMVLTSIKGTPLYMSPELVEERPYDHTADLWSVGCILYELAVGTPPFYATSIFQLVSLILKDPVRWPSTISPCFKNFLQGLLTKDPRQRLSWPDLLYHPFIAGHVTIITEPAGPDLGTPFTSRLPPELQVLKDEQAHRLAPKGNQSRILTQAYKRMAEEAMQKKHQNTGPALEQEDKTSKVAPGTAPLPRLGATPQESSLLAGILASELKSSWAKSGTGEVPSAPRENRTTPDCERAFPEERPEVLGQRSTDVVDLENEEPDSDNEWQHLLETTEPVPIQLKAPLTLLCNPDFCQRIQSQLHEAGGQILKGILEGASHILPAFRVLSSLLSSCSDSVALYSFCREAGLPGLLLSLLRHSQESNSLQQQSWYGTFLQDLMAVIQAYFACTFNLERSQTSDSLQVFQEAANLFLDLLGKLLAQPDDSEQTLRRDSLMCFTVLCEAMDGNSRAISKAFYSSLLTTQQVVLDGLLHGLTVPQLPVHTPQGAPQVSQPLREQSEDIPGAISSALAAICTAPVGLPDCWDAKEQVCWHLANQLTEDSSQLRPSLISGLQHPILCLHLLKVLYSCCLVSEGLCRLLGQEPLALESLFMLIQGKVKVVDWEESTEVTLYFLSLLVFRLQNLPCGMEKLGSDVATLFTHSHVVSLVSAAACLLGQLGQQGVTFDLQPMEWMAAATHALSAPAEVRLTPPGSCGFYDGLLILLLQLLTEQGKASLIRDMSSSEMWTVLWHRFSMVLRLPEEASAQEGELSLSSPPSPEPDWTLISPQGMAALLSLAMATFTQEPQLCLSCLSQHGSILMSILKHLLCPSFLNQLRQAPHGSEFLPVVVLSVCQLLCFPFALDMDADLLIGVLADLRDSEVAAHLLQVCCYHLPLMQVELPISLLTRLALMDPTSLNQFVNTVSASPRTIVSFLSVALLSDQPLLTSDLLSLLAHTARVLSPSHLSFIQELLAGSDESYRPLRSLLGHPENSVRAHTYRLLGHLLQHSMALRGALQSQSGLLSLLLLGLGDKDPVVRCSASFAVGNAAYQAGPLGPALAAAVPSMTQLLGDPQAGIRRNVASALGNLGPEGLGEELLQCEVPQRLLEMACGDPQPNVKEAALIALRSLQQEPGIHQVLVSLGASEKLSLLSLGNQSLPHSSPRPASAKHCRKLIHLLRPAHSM

CSNK1G1 (human) = CSNK1G1 (human) (UniProt Q9HCP0)
STK3 (human) = STK3 (human) (UniProt Q13188)
[3] = test system: KIT (human), P10721 [V559D/V654A]
Chain of KIT (human), P10721 [V559D/V654A] (P10721 whole entry V559D/V654A, looked up): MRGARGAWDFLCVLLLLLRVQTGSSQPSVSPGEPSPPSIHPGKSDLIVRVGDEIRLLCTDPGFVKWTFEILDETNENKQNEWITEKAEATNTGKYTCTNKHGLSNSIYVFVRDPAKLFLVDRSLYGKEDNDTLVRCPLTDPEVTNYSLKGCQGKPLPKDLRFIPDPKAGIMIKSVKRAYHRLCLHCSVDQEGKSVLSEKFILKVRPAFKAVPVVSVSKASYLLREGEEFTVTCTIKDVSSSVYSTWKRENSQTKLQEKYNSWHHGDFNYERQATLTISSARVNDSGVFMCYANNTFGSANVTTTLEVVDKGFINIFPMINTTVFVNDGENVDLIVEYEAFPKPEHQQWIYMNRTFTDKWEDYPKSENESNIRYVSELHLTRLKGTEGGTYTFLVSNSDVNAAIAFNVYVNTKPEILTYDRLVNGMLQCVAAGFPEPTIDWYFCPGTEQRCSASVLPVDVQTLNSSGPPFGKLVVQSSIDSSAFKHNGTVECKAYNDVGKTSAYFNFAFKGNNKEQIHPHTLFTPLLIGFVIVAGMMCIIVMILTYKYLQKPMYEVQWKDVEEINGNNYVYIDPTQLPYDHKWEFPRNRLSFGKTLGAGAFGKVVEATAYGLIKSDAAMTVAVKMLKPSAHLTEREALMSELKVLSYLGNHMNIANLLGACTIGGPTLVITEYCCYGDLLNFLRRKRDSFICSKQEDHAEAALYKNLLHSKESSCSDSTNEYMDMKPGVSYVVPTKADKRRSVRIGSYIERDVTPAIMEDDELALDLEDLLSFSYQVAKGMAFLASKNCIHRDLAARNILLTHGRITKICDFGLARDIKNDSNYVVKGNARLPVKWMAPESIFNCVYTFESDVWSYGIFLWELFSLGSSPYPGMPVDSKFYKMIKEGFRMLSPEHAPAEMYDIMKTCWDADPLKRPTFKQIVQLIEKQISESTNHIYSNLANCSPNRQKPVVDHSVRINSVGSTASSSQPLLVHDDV

ICK (human) = ICK (human) (UniProt Q9UPZ9)
MAP2K7 (human) = MAP2K7 (human) (UniProt O14733)
PRKD1 (human) = PRKD1 (human) (UniProt Q15139)
AXL (human) = AXL (human) (UniProt P30530)
RIPK2 (human) = RIPK2 (human) (UniProt O43353)
MAPKAPK5 (human) = MAPKAPK5 (human) (UniProt Q8IW41)
TLK1 (human) = TLK1 (human) (UniProt Q9UKI8)
Chain of TLK1 (human) (Q9UKI8 whole entry, looked up): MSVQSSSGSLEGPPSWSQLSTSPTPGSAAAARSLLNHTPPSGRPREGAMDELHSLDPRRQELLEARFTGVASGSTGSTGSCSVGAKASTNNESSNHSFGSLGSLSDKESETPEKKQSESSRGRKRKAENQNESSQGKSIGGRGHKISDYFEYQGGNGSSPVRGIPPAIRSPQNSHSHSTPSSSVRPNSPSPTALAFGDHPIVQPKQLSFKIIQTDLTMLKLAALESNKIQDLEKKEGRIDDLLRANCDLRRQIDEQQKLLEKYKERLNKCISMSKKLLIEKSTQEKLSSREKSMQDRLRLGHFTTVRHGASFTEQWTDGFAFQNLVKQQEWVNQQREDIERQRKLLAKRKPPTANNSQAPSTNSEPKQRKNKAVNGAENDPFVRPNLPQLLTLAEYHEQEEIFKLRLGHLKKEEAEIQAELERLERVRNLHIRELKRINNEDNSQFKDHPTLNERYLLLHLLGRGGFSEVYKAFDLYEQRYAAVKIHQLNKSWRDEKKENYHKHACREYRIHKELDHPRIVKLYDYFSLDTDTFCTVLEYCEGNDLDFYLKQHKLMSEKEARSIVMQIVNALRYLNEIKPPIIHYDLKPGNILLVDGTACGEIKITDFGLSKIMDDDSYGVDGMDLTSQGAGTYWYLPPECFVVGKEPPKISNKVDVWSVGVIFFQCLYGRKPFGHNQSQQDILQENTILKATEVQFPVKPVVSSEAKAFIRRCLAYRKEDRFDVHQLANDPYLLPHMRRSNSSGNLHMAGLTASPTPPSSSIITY

PLK3 (human) = PLK3 (human) (UniProt Q9H4B4)

Chain of NEK3 (human) (P51956 whole entry, looked up): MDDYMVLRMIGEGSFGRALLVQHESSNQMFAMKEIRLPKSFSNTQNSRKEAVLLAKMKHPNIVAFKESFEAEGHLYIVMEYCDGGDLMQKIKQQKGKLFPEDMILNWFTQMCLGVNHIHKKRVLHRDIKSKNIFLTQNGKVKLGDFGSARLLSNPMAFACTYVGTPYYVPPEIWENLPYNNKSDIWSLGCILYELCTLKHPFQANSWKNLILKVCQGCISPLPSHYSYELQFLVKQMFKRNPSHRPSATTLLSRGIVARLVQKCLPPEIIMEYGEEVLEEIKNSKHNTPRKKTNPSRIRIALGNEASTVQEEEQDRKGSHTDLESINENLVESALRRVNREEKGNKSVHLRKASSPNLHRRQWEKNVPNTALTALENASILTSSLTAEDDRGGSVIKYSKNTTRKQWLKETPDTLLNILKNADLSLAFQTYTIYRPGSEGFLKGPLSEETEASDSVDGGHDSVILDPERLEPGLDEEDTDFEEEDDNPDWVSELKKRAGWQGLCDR

Structure (SMILES): COc1cc2ncn(-c3cc(OCc4ccccc4C(F)(F)F)c(C(N)=O)s3)c2cc1OC
- kinase still bound, per cent of control (STK24 (human)): 87%
- kinase still bound, per cent of control (CAMK4 (human)): 100%
- kinase still bound, per cent of control (NEK3 (human)): 100%
- kinase still bound, per cent of control (MST4 (human)): 85%
- kinase still bound, per cent of control (AURKC (human)): 27%
- kinase still bound, per cent of control (CAMK2B (human)): 75%
- kinase still bound, per cent of control (PHKG1 (human)): 88%
- kinase still bound, per cent of control (MAP2K1 (human)): 67%
- kinase still bound, per cent of control (MAP2K4 (human)): 100%
- kinase still bound, per cent of control (TGFBR1 (human)): 86%
- kinase still bound, per cent of control (AURKA (human)): 100%
- kinase still bound, per cent of control (CDK14 (human)): 90%
- kinase still bound, per cent of control (HIPK4 (human)): 15%
- kinase still bound, per cent of control (DYRK1A (human)): 75%
- kinase still bound, per cent of control (STK16 (human)): 49%
- kinase still bound, per cent of control (OXSR1 (human)): 100%
- kinase still bound, per cent of control (STK38L (human)): 100%
- kinase still bound, per cent of control (PKMYT1 (human)): 60%
- kinase still bound, per cent of control [1]: 48%
- kinase still bound, per cent of control (DAPK1 (human)): 8.6%
- kinase still bound, per cent of control (GAK (human)): 4.1%
- kinase still bound, per cent of control (CDK5 (human)): 100%
- kinase still bound, per cent of control [2]: 8%
- kinase still bound, per cent of control (MAP2K3 (human)): 78%
- kinase still bound, per cent of control (MAP3K6 (human)): 84%
- kinase still bound, per cent of control (TTK (human)): 87%
- kinase still bound, per cent of control (NEK9 (human)): 48%
- kinase still bound, per cent of control (MAP3K11 (human)): 81%
- kinase still bound, per cent of control (STK36 (human)): 76%
- kinase still bound, per cent of control (CSNK1G1 (human)): 86%
- kinase still bound, per cent of control (STK3 (human)): 1.8%
- kinase still bound, per cent of control [3]: 100%
- kinase still bound, per cent of control (ICK (human)): 100%
- kinase still bound, per cent of control (MAP2K7 (human)): 87%
- kinase still bound, per cent of control (PRKD1 (human)): 100%
- kinase still bound, per cent of control (AXL (human)): 65%
- kinase still bound, per cent of control (RIPK2 (human)): 41%
- kinase still bound, per cent of control (MAPKAPK5 (human)): 91%
- kinase still bound, per cent of control (TLK1 (human)): 96%
- kinase still bound, per cent of control (PLK3 (human)): 0%

Structure (SMILES): O=C1NC(=O)/C(=C/c2ccc3nccc(-c4ccncc4)c3c2)S1
- kinase still bound, per cent of control (STK24 (human)): 87%
- kinase still bound, per cent of control (CAMK4 (human)): 100%
- kinase still bound, per cent of control (NEK3 (human)): 77%
- kinase still bound, per cent of control (MST4 (human)): 90%
- kinase still bound, per cent of control (AURKC (human)): 56%
- kinase still bound, per cent of control (CAMK2B (human)): 9.6%
- kinase still bound, per cent of control (PHKG1 (human)): 31%
- kinase still bound, per cent of control (MAP2K1 (human)): 1.8%
- kinase still bound, per cent of control (MAP2K4 (human)): 9.6%
- kinase still bound, per cent of control (TGFBR1 (human)): 20%
- kinase still bound, per cent of control (AURKA (human)): 69%
- kinase still bound, per cent of control (CDK14 (human)): 37%
- kinase still bound, per cent of control (HIPK4 (human)): 3.8%
- kinase still bound, per cent of control (DYRK1A (human)): 0%
- kinase still bound, per cent of control (STK16 (human)): 4.9%
- kinase still bound, per cent of control (OXSR1 (human)): 87%
- kinase still bound, per cent of control (STK38L (human)): 100%
- kinase still bound, per cent of control (PKMYT1 (human)): 78%
- kinase still bound, per cent of control [1]: 31%
- kinase still bound, per cent of control (DAPK1 (human)): 6.4%
- kinase still bound, per cent of control (GAK (human)): 0%
- kinase still bound, per cent of control (CDK5 (human)): 82%
- kinase still bound, per cent of control [2]: 93%
- kinase still bound, per cent of control (MAP2K3 (human)): 35%
- kinase still bound, per cent of control (MAP3K6 (human)): 96%
- kinase still bound, per cent of control (TTK (human)): 19%
- kinase still bound, per cent of control (NEK9 (human)): 95%
- kinase still bound, per cent of control (MAP3K11 (human)): 98%
- kinase still bound, per cent of control (STK36 (human)): 89%
- kinase still bound, per cent of control (CSNK1G1 (human)): 20%
- kinase still bound, per cent of control (STK3 (human)): 54%
- kinase still bound, per cent of control [3]: 100%
- kinase still bound, per cent of control (ICK (human)): 46%
- kinase still bound, per cent of control (MAP2K7 (human)): 38%
- kinase still bound, per cent of control (PRKD1 (human)): 89%
- kinase still bound, per cent of control (AXL (human)): 7.6%
- kinase still bound, per cent of control (RIPK2 (human)): 30%
- kinase still bound, per cent of control (MAPKAPK5 (human)): 0.2%
- kinase still bound, per cent of control (TLK1 (human)): 81%
- kinase still bound, per cent of control (PLK3 (human)): 49%
